Experimental data taken from ChEMBL document CHEMBL1137933, “Pseudodeflectusin, a novel isochroman derivative from Aspergillus pseudodeflectus a parasite of the sea weed, Sargassum fusiform, as a selective human cancer cytotoxin” (Bioorg Med Chem Lett, 2004).
pIC50: −log10 of the molar value.

Key:
[1] = biological target: Gamma-secretase; experiment: Inhibition of human gamma-secretase activity; format: protein-complex assay
[2] = test system: Mus musculus; experiment: Compound was tested for reduction in plasma level of Tg2576 mice 3h after oral administration at 200 umol/kg; format: functional
[3] = test system: Mus musculus; experiment: Compound was tested for reduction in Abeta-protein levels in brain of Tg2576 mice 3h after oral administration at 200 umol/kg; format: functional
[4] = test system: Mus musculus; experiment: Compound was tested for reduction in brain Abeta-protein level of Tg2576 mice 3h after oral administration at 200 umol/kg; format: functional
[5] = test system: Mus musculus; experiment: Compound was tested for reduction in Abeta-protein levels in plasma of Tg2576 beta-APP-swedish transgenic mice at a single dose of 200 umol/kg; format: functional
[6] = test system: Mus musculus; experiment: Compound was tested for reduction in Abeta-protein levels in the CNS of Tg2576 beta-APP-swedish transgenic mice after oral administration; format: functional, Central nervous system
[7] = test system: Mus musculus; experiment: Compound was tested for reduction in Abeta-protein levels in brain after 3 hr in Tg2576 beta-APP-swedish transgenic mice at a single dose of 200 umol/kg; format: functional

pIC50 [1] | Structure (SMILES) | further results
7.33 | CC(C)N1C(=O)c2ccccc2C(NC(=O)[C@H](C)NC(=O)Cc2cc(F)cc(F)c2)C(=O)N1C (stereo not given in full) | –
7.43 | CC(C)C[C@H](NC(=O)Cc1cc(F)cc(F)c1)C(=O)NC1C(=O)N(C)N(C(C)C)C(=O)c2ccccc21 (stereo not given in full) | –
6.85 | CC(C)N1C(=O)c2ccccc2C(NC(=O)[C@H](C)NC(=O)Cc2ccccc2)C(=O)N1C (stereo not given in full) | –
5.82 | CC(C)C[C@H](NC(=O)Cc1cc(F)cc(F)c1)C(=O)NC1C(=O)N(C)C(c2ccccc2)=NC1(C)C (stereo not given in full) | –
6.72 | CC(C)[C@H](NC(=O)Cc1cc(F)cc(F)c1)C(=O)NC1C(=O)N(C)N(C(C)C)C(=O)c2ccccc21 (stereo not given in full) | –
< 5.60 | CC(C)N1C(=O)c2ccccc2C(NC(=O)[C@H](C)NC(=O)Cc2cccc3ccccc23)C(=O)N1C (stereo not given in full) | –
7.15 | CC(C)C[C@H](NC(=O)[C@@H](O)c1ccccc1)C(=O)N[C@H]1c2ccccc2C[C@H]1O | –
< 5.60 | CC(C)N1C(=O)c2ccccc2C(NC(=O)[C@H](C)NC(=O)Cc2cccnc2)C(=O)N1C (stereo not given in full) | –
7.42 | CC(C)N1C(=O)c2ccccc2C(NC(=O)[C@H](C)NC(=O)Cc2ccoc2)C(=O)N1C (stereo not given in full) | –
6.82 | CC(C)N1C(=O)c2ccccc2C(NC(=O)[C@H](C)NC(=O)CC2CCCCC2)C(=O)N1C (stereo not given in full) | –
6.14 | CC(C)C[C@H](NC(=O)Cc1cc(F)cc(F)c1)C(=O)Nc1cnc(-c2ccccc2)n(C)c1=O | –
< 5.60 | CC(C)N1C(=O)c2ccccc2C(NC(=O)[C@H](C)NC(=O)Cc2cc(C(F)(F)F)cc(C(F)(F)F)c2)C(=O)N1C (stereo not given in full) | –
7.12 | C[C@H](NC(=O)Cc1cc(F)cc(F)c1)C(=O)NC1C(=O)N(C)c2ccccc2-c2ccccc21 (stereo not given in full) | –
8.30 | CC(C)N1C(=O)c2ccccc2C(NC(=O)[C@H](C)NC(=O)[C@@H](O)c2cc(F)cc(F)c2)C(=O)N1C (stereo not given in full) | –

Continued, compound first:

Structure (SMILES) | pIC50 [1] | further results
CC(C)N1C(=O)c2ccccc2C(NC(=O)[C@H](C)NC(=O)Cc2cccc(F)c2)C(=O)N1C (stereo not given in full) | 7.24 | –
C[C@H](NC(=O)Cc1cc(F)cc(F)c1)C(=O)NC1N=C(c2ccccc2)c2ccccc2N(C)C1=O (stereo not given in full) | 6.68 | –
C[C@H](NC(=O)Cc1cc(F)cc(F)c1)C(=O)NC1C(=O)N(C)N(C)C(=O)c2ccccc21 (stereo not given in full) | 8.30 | Activity [2]: 2987 nM; Reduction [3]: 43%; Activity [4]: 77 nM
COc1cc(CC(=O)N[C@@H](C)C(=O)NC2C(=O)N(C)N(C(C)C)C(=O)c3ccccc32)cc(OC)c1 (stereo not given in full) | < 5.60 | –
CC(C)N1C(=O)c2ccccc2C(NC(=O)[C@H](C)NC(=O)Cc2ccco2)C(=O)N1C (stereo not given in full) | 7.07 | –
CC(C)N1C(=O)c2ccccc2C(NC(=O)[C@H](C)NC(=O)Cc2ccncc2)C(=O)N1C (stereo not given in full) | < 5.60 | –
CC(C)N1C(=O)c2ccccc2C(NC(=O)[C@H](C)NC(=O)Cc2ccsc2)C(=O)N1C (stereo not given in full) | 7.85 | –
CC(C)C[C@H](NC(=O)Cc1ccsc1)C(=O)NC1C(=O)N(C)N(C(C)C)C(=O)c2ccccc21 (stereo not given in full) | 8.40 | –
CCCCN(C)C(=O)[C@H](CC1CCCCC1)NC(=O)[C@H](CC(C)C)NC(=O)Cc1cc(F)cc(F)c1 | 8.22 | –
CCCCN(C)C(=O)[C@H](CC1CCCCC1)NC(=O)[C@H](CC(C)C)NC(=O)[C@@H](O)c1ccccc1 | 9.00 | Activity [5]: 1833 nM; Reduction [6]: 15%; Activity [7]: 65 nM
